Our source for the Ki values is US8541581B2, “Inhibitors of fatty acid amide hydrolase” (Infinity Pharmaceuticals, Inc., priority 2009, dated 2013).

This assay deals with T1, human FAAH (Homo sapiens, UniProt O00519).
T1 construct: host or cells: COS-7 cells, transient transfection; 13,000 g membrane fraction solubilized in 1% Triton X-100
T1 sequence (O00519 1-579): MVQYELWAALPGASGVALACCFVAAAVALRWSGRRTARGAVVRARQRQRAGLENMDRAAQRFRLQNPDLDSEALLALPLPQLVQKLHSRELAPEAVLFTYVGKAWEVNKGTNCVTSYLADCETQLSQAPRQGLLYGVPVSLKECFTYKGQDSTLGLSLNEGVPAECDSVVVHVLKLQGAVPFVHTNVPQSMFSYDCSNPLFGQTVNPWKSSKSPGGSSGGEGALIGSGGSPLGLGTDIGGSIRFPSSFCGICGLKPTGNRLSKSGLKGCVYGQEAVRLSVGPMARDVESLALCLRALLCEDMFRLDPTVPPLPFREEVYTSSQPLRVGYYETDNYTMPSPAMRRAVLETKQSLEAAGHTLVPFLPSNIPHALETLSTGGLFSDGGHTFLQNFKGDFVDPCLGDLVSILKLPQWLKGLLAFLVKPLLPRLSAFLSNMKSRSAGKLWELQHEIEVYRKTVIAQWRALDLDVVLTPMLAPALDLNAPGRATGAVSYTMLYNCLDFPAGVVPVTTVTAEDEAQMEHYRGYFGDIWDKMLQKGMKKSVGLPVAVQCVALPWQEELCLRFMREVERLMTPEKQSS
As to the kind of experiment: Human FAAH fluorescence-based inhibition assay (AMC Arachidonoyl Amide hydrolysis). The format is biochemical. As to conditions: human FAAH from transfected COS-7 cells; 20 μM AMC-Arachidonoyl substrate; 30 min preincubation, 4 hours at room temperature. How it is done:
Exemplary compounds are set forth in the Examples provided below. Compounds were assayed as inhibitors of human FAAH using the method described in detail in Example 19.
The following assays can be used to determine the inhibition of FAAH: (1) a fluorescence-based assay (Manjunath et al., Analytical Biochemistry (2005) 343:143-151); and (2) a microsome-based fluorescent assay (Wang et al., Biomolecular Screening (2006) 1-9).
COS-7 cells were split the day before, 1:5 into 150 mm×25 mm cell culture dishes (Corning Inc., Cat. No. 430599). Transient transfection took place at 30-40% confluency according to FuGENE 6 Transfection Reagent (Roche, Cat. No. 11814 443 001).
The FuGENE transfection 6 reagent (45 uL) was added to 1410 μL of media (DMEM, serum free without pen/strep) in a 15 mL conical tube and incubated at room temp for 5 minutes, followed by the addition of FAAH plasmid DNA ([…]) (OriGene Cat. No. TC119221, Genbank Accession No. NM_001441.1, 0.67 ug/uL) and a further incubation of 15 minutes at room temperature. The resulting solution was added into one dish of 30-40% confluent COS-7 cells in a drop-wise manner. The COS-7 cell dish was subsequently incubated for 48 hours. The cells were then harvested.
Media was aspirated from the dishes and the cells rinsed with 10 mL PBS. The PBS was removed and 3 mL of PBS added to the dish. The dish was scraped to resuspend the cells, and the subsequent cell suspension collected into a 15 mL conical tube. The cells were pelleted by centrifugation at 1200 rpm for 5 minutes in a bench top centrifuge. PBS was removed and the cell pellet snap frozen in liquid nitrogen and stored at −80° C.
COS-7 Cells—FAAH Purification: • (1) Fractionation: Frozen cell pellets from transient transfections were thawed on ice and resuspended in 12.5 mM Hepes pH 8.0, 100 mM NaCl, 1 mM EDTA (10 mL/0.2 g cell pellet). The pellets were dounce homogenized and then sonicated to produce cell extract. The cell extract was subsequently centrifuged at 1000 g to remove cellular debris. The pellet was discarded and the supernatant centrifuged at 13,000 g for 20 minutes. The pellet contained membrane bound FAAH. The supernatant was discarded and the pellet resolubilized. • (2) Re-solubilization: The fraction of interest, (13,000 g, membrane fraction) was re-suspended in 2.3 mL re-suspension buffer (20 mM Hepes pH 7.8, 10% v/v Glycerol, 1 mM EDTA, 1% Triton X-100) and the sample incubated on ice for 1 hour and then centrifuged to remove any particulate matter. The supernatant containing solubilized human FAAH was aliquoted and snap frozen in liquid nitrogen and stored at −80° C. until use. • (3) Characterization: Protein Concentration determined by Bradford assay. • SDS gel and Western blot to confirm presence of FAAH • FAAH activity assay • Km determination—96-well assay • Linear dependence—96-well assay • Standard compound Ki determination—384-well assay
Rat FAAH biochemical assays were carried out in a 96 well flat bottom black non-treated polystyrene plates (Corning Costar Catalogue #3915). FAAH reaction buffer: 50 mM Hepes (pH 7.5), 1 mM EDTA, 0.2% Triton X-100. FAAH substrate-AMC Arachidonoyl Amide (Cayman Chemicals Company, Catalog #10005098). The reaction was read in an Envision microtiter plate reader [Excitation filter 355 nm (40 nm bandpass); Emission filter 460 nm (25 nm bandpass)]. The raw fluorescence was plotted on the y axis and the inhibitor concentration on the x axis to give a dose response inhibition curve. The data was fitted to a single site competitive inhibition equation, fixing the Km for the rat and human enzyme to 12 μM and 9 μM respectively.
The principle of this assay was the hydrolysis of AMC-Arichodonoyl, a fluorescent analogue of Anandamide, which results in the formation of Arachidonic acid and AMC. The formation of AMC results in an increase in fluorescence (see, for example, Manjunath et al., Analytical Biochemistry (2005) 343:143-151; and Wang et al., Biomolecular Screening (2006) 1-9). […]
What is called Ki is a dissociation constant, usually derived from enzyme kinetics or from competition with a known ligand. High values mean lower affinity, low ones higher affinity. Turning to `CC(C)(C)OC(=O)N1CC=C(B(O)O)CC1` [Example 1], the Ki lay in the range of 100 to 1000 nM.
The compound `O=C(OCc1ccccc1)N1CC=C(B(O)O)CC1` [Example 2] showed a Ki of 10 to 100 nM.
Consider `CC(=O)N1CC=C(B(O)O)CC1` [Example 3], for which the Ki was > 1000 nM.
The compound `O=C(c1ccc(Cl)cc1)N1CC=C(B(O)O)CC1` [Example 4] yielded a Ki of 10 to 100 nM.
For `Cc1c(C(=O)N2CC=C(B(O)O)CC2)sc2ccccc12` [Example 5] the value was 10 to 100 nM.
Next, `Cc1c(CC(=O)N2CC=C(B(O)O)CC2)sc2ccccc12` [Example 6]: 10 to 100 nM; `O=C(NCc1ccccc1)N1CC=C(B(O)O)CC1` [Example 7]: 10 to 100 nM.
`CC(C)(C)OC(=O)N1CCC(B(O)O)CC1` [Example 8] returned a Ki of 10 to 100 nM.
For `O=C(OCc1ccccc1)N1CCC(B(O)O)CC1` [Example 9], the Ki lay within 10 to 100 nM.
Compound `O=C(CCCCc1ccccc1)N1CCC(B(O)O)CC1` [Example 10] came in with an inhibitory constant (Ki) of 10 to 100 nM.
`O=C(c1ccc(Cl)cc1)N1CCC(B(O)O)CC1` [Example 11] returned an inhibition constant (Ki) of 100 to 1000 nM.
The compound `O=C(c1cnc2ccccc2c1)N1CCC(B(O)O)CC1` [Example 12] gave a Ki of 100 to 1000 nM.
On to `O=C(c1ccc2ccccc2n1)N1CCC(B(O)O)CC1` [Example 13], for which the Ki was 100 to 1000 nM.
For `O=C(CNCc1ccccc1)N1CCC(B(O)O)CC1` [Example 14] the value was > 1000 nM.
Next, `O=C([C@H]1CCCN1)N1CCC(B(O)O)CC1` [Example 15]: > 1000 nM.
Next, `Cc1ccc(S(=O)(=O)N2CCC(B(O)O)CC2)cc1` [Example 16]: 100 to 1000 nM; `OB(O)C1CCN(Cc2ccccc2)CC1` [Example 17]: > 1000 nM; `Cc1c(CN2CCC(B(O)O)CC2)sc2ccccc12` [Example 18]: 10 to 100 nM.
